Tests used:
[1] = In vitro metabolism of [^11C] AMP in human whole blood or plasma; type: in vitro ADME
Procedure: Human plasma was prepared from heparinized blood of a healthy volunteer. 50 μL of [^11C] AMP (39.96-70.82 GBq/μmol, 1080-1914 mCi/μmol) was added to 1 mL of plasma or heparinized whole blood at 37° C. In one series of studies, dipyridamole was added to give a concentration of 500 μM in whole blood. One hundred μL samples, which were removed from the incubation mixture at 0, 2, 5, 10, 20, and 30 minutes, were added to 350 μL of water at 0° C. and acidified with 50 μL of 5N perchloric acid. After standing for 5 minutes on ice, the protein precipitate was removed by centrifugation at 13,000×g for 1 minute in a microcentrifuge. The acid soluble supernatant was analyzed by HPLC. Chromatographic separation of the labeled adenosine phosphate esters used a Phenomenex Synergi Polar RP column (4.6×250 mm, 10 micron particle size) eluted with 0.1N perchloric acid at 2 mL/min. Radioactivity was detected by a dual BGO flow detector (Bioscan Inc., Washington D.C.). Optical detection was at 254 nm. Data from both detectors was collected and analyzed by Laura software (Bioscan Inc., Washington D.C.).

[2] = Ex vivo distribution of [^11C] AMP in mice; design: species or system mouse; conditions: CD-1 mice, mean ± SD (n = 3)
Procedure: Non-fasted, male CD-1 mice (25 g) were injected via the tail vein with 15.5 MBq (418 μCi, 2.57 μg/kg) of [^11C] AMP. Three mice each were sacrificed by cervical dislocation at 5, 30, and 60 minutes after injection. The lungs, heart, kidneys, liver, spleen, intestine, stomach, and brain were quickly removed and put on ice. One femur and samples of thigh muscle and blood were also collected. The organs were weighed, and the tissue radioactivity measured with an automated gamma counter (LKB Wallac 1282 Compugamma CS Universal Gamma Counter). The percent injected dose per gram of tissue (% ID/g) was calculated by comparison with samples of a standard dilution of the initial dose. All measurements were corrected for decay.

[3] = Effect of dipyridamole treatment on uptake and distribution of [^11C] AMP in mice; type: in vivo, mouse; conditions: 30 mg/kg dipyridamole ip 60 minutes before [^11C] AMP
Procedure: The effect of dipyridamole treatment on the uptake and distribution of [^11C] AMP, nine mice were given a 30 mg/kg dose of dipyridamole ip 60 minutes prior to administration of the radiotracer was determined. Three mice each were sacrificed 5, 30, and 60 minutes after injection of 23.8 MBq (642 μCi, 8.7 μg/kg) of [^11C] AMP. All tissue samples were handled as described above.

In the case of Nc1n[11cH]nc2c1ncn2[C@@H]1O[C@H](COP(=O)(O)O)[C@@H](O)[C@H]1O [[^11C] AMP, [^11C] Adenosine 5′-Monophosphate], the “conversion of the tracer to adenosine” value ([1]; dipyridamole (500 μM) treated whole human blood, after 5 minutes) is reported as greater than 60%, the “conversion to ATP” value ([1]; whole human blood, 37° C., after 10 minutes) is reported as greater than 60% and the “Ex vivo mouse biodistribution” value ([2]; Blood, 5 minutes after iv injection) is reported as 27.94 ± 8.21 % ID/g. The “Ex vivo mouse biodistribution” value ([2]; Blood, 30 minutes after iv injection) was 27.34 ± 0.41 % ID/g, the “Ex vivo mouse biodistribution” value ([2]; Blood, 60 minutes after iv injection) was 24.34 ± 4.13 % ID/g and the “Ex vivo mouse biodistribution” value ([2]; Bone, 5 minutes after iv injection) was 2.35 ± 0.68 % ID/g. The “Ex vivo mouse biodistribution” value ([2]; Bone, 30 minutes after iv injection) was 2.57 ± 0.34 % ID/g, the “Ex vivo mouse biodistribution” value ([2]; Bone, 60 minutes after iv injection) was 3.21 ± 0.48 % ID/g and the “Ex vivo mouse biodistribution” value ([2]; Brain, 5 minutes after iv injection) was 0.78 ± 0.18 % ID/g. The “Ex vivo mouse biodistribution” value ([2]; Brain, 30 minutes after iv injection) was 1.06 ± 0.19 % ID/g, the “Ex vivo mouse biodistribution” value ([2]; Brain, 60 minutes after iv injection) was 0.80 ± 0.26 % ID/g and the “Ex vivo mouse biodistribution” value ([2]; Heart, 5 minutes after iv injection) was 20.09 ± 3.24 % ID/g. The “Ex vivo mouse biodistribution” value ([2]; Heart, 30 minutes after iv injection) was 18.07 ± 5.19 % ID/g, the “Ex vivo mouse biodistribution” value ([2]; Heart, 60 minutes after iv injection) was 20.47 ± 2.87 % ID/g and the “Ex vivo mouse biodistribution” value ([2]; Intestine, 5 minutes after iv injection) was 1.74 ± 0.41 % ID/g. The “Ex vivo mouse biodistribution” value ([2]; Intestine, 30 minutes after iv injection) was 1.80 ± 0.50 % ID/g, the “Ex vivo mouse biodistribution” value ([2]; Intestine, 60 minutes after iv injection) was 2.17 ± 1.06 % ID/g and the “Ex vivo mouse biodistribution” value ([2]; Kidneys, 5 minutes after iv injection) was 8.88 ± 3.82 % ID/g. For the same compound, the “Ex vivo mouse biodistribution” value ([2]; Kidneys, 30 minutes after iv injection) was 9.31 ± 2.88 % ID/g, the “Ex vivo mouse biodistribution” value ([2]; Kidneys, 60 minutes after iv injection) was 6.80 ± 4.10 % ID/g and the “Ex vivo mouse biodistribution” value ([2]; Liver, 5 minutes after iv injection) was 7.56 ± 3.98 % ID/g. For the same compound, the “Ex vivo mouse biodistribution” value ([2]; Liver, 30 minutes after iv injection) was 2.99 ± 0.10 % ID/g, the “Ex vivo mouse biodistribution” value ([2]; Liver, 60 minutes after iv injection) was 3.53 ± 0.55 % ID/g and the “Ex vivo mouse biodistribution” value ([2]; Lungs, 5 minutes after iv injection) was 32.37 ± 4.52 % ID/g. The “Ex vivo mouse biodistribution” value ([2]; Lungs, 30 minutes after iv injection) was 29.52 ± 5.42 % ID/g, the “Ex vivo mouse biodistribution” value ([2]; Lungs, 60 minutes after iv injection) was 38.48 ± 3.63 % ID/g and the “Ex vivo mouse biodistribution” value ([2]; Muscle, 5 minutes after iv injection) was 2.14 ± 0.61 % ID/g. The “Ex vivo mouse biodistribution” value ([2]; Muscle, 30 minutes after iv injection) was 3.67 ± 0.54 % ID/g, the “Ex vivo mouse biodistribution” value ([2]; Muscle, 60 minutes after iv injection) was 3.63 ± 1.04 % ID/g and the “Ex vivo mouse biodistribution” value ([2]; Spleen, 5 minutes after iv injection) was 2.96 ± 1.49 % ID/g. The “Ex vivo mouse biodistribution” value ([2]; Spleen, 30 minutes after iv injection) was 4.75 ± 0.67 % ID/g, the “Ex vivo mouse biodistribution” value ([2]; Spleen, 60 minutes after iv injection) was 4.71 ± 1.06 % ID/g and the “Ex vivo mouse biodistribution” value ([2]; Stomach, 5 minutes after iv injection) was 1.98 ± 0.36 % ID/g. For the same compound, the “Ex vivo mouse biodistribution” value ([2]; Stomach, 30 minutes after iv injection) was 1.12 ± 0.25 % ID/g and the “Ex vivo mouse biodistribution” value ([2]; Stomach, 60 minutes after iv injection) was 2.10 ± 0.98 % ID/g.
For OCCN(CCO)c1nc(N2CCCCC2)c2nc(N(CCO)CCO)nc(N3CCCCC3)c2n1 [dipyridamole], the “effect on amount of tracer in the blood” value [3] was “did not affect” and the “effect on uptake of [^11C] radiotracer in the lungs” value ([3]; 60 minutes after injection) was “significantly decreased”.

From patent publication US8420049B2 (priority 2002, dated 2013)
